Biological target: T1, Adenosine receptor A1 (Homo sapiens, UniProt P30542)
T1 sequence (P30542 whole entry): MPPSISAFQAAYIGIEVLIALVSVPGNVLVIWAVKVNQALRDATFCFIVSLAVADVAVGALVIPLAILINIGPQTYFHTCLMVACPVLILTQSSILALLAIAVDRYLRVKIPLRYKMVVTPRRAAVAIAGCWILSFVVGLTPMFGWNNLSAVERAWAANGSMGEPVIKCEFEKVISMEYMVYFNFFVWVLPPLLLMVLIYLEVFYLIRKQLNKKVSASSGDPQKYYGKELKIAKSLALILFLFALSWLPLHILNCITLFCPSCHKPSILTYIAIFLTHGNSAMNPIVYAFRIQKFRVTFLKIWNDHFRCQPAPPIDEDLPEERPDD
Test: Binding affinity against Human recombinant Adenosine A1 receptor stably transfected in CHO cells using [3H]CCPA as radioligand
Type: cell-based

Row | Ki [nM] | Compound
1 | 8.4 | CNc1nc(C#CC(O)c2ccccc2)nc2c1ncn2[C@@H]1O[C@H](CO)[C@@H](O)[C@H]1O (stereo partly drawn)
2 | 1.5 | CC(C)Nc1nc(C#CC(O)c2ccccc2)nc2c1ncn2[C@@H]1O[C@H](CO)[C@@H](O)[C@H]1O (stereo partly drawn)
3 | 2.7 | CCNc1nc(C#CC(O)c2ccccc2)nc2c1ncn2[C@@H]1O[C@H](CO)[C@@H](O)[C@H]1O (stereo partly drawn)
4 | 0.67 | Nc1nc(C#CC(O)c2ccccc2)nc2c1ncn2[C@@H]1O[C@H](CO)[C@@H](O)[C@H]1O (stereo partly drawn)
5 | 429 | CC(C)Nc1nc(C#Cc2ccccc2)nc2c1ncn2[C@@H]1O[C@H](CO)[C@@H](O)[C@H]1O
6 | 560 | CCNC(=O)[C@H]1O[C@@H](n2cnc3c(N)nc(C#Cc4ccccc4)nc32)[C@H](O)[C@@H]1O
7 | 2.1 | CCNC(=O)[C@H]1O[C@@H](n2cnc3c(N)nc(C#C[C@@H](O)c4ccccc4)nc32)[C@H](O)[C@@H]1O
8 | 1.9 | CCNC(=O)[C@H]1O[C@@H](n2cnc3c(N)nc(C#C[C@H](O)c4ccccc4)nc32)[C@H](O)[C@@H]1O
9 | 3.4 | CCNc1nc(C#C[C@@H](O)c2ccccc2)nc2c1ncn2[C@@H]1O[C@H](CO)[C@@H](O)[C@H]1O
10 | 1.7 | CC(C)Nc1nc(C#C[C@@H](O)c2ccccc2)nc2c1ncn2[C@@H]1O[C@H](CO)[C@@H](O)[C@H]1O
11 | 327 | CCCCC#Cc1nc(NC)c2ncn([C@@H]3O[C@H](CO)[C@@H](O)[C@H]3O)c2n1
12 | 9.6 | CNc1nc(C#C[C@@H](O)c2ccccc2)nc2c1ncn2[C@@H]1O[C@H](CO)[C@@H](O)[C@H]1O

Biological target: Adenosine receptor A2a (Homo sapiens, UniProt P29274)
Test: Binding affinity against Human recombinant Adenosine A2A receptor stably transfected in CHO cells using [3H]NECA as radioligand
Type: cell-based

Chain of Adenosine receptor A2a (P29274 whole entry): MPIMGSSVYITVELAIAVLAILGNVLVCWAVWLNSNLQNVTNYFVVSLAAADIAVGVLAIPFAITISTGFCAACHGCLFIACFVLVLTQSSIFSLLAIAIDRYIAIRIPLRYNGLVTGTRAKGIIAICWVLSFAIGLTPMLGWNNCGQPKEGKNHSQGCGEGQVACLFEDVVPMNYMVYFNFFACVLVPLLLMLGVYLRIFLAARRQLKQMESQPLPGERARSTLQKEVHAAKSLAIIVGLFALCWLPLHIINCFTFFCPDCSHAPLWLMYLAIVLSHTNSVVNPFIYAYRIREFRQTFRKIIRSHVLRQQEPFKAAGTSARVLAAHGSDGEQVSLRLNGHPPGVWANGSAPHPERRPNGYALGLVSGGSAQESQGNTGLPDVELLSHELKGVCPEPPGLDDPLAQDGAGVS

Row | Ki [nM] | Compound
13 | 273 | CNc1nc(C#CC(O)c2ccccc2)nc2c1ncn2[C@@H]1O[C@H](CO)[C@@H](O)[C@H]1O (stereo partly drawn)
14 | 96 | CC(C)Nc1nc(C#CC(O)c2ccccc2)nc2c1ncn2[C@@H]1O[C@H](CO)[C@@H](O)[C@H]1O (stereo partly drawn)
15 | 94 | CCNc1nc(C#CC(O)c2ccccc2)nc2c1ncn2[C@@H]1O[C@H](CO)[C@@H](O)[C@H]1O (stereo partly drawn)
16 | 7 | Nc1nc(C#CC(O)c2ccccc2)nc2c1ncn2[C@@H]1O[C@H](CO)[C@@H](O)[C@H]1O (stereo partly drawn)
17 | 1100 | CC(C)Nc1nc(C#Cc2ccccc2)nc2c1ncn2[C@@H]1O[C@H](CO)[C@@H](O)[C@H]1O
18 | 620 | CCNC(=O)[C@H]1O[C@@H](n2cnc3c(N)nc(C#Cc4ccccc4)nc32)[C@H](O)[C@@H]1O
19 | 2 | CCNC(=O)[C@H]1O[C@@H](n2cnc3c(N)nc(C#C[C@@H](O)c4ccccc4)nc32)[C@H](O)[C@@H]1O
20 | 39 | CCNC(=O)[C@H]1O[C@@H](n2cnc3c(N)nc(C#C[C@H](O)c4ccccc4)nc32)[C@H](O)[C@@H]1O
21 | 64 | CCNc1nc(C#C[C@@H](O)c2ccccc2)nc2c1ncn2[C@@H]1O[C@H](CO)[C@@H](O)[C@H]1O
22 | 43 | CC(C)Nc1nc(C#C[C@@H](O)c2ccccc2)nc2c1ncn2[C@@H]1O[C@H](CO)[C@@H](O)[C@H]1O
23 | 1230 | CCCCC#Cc1nc(NC)c2ncn([C@@H]3O[C@H](CO)[C@@H](O)[C@H]3O)c2n1
24 | 163 | CNc1nc(C#C[C@@H](O)c2ccccc2)nc2c1ncn2[C@@H]1O[C@H](CO)[C@@H](O)[C@H]1O

Biological target: T2, Adenosine receptor A3 (Homo sapiens, UniProt P0DMS8)
T2 sequence (P0DMS8 whole entry): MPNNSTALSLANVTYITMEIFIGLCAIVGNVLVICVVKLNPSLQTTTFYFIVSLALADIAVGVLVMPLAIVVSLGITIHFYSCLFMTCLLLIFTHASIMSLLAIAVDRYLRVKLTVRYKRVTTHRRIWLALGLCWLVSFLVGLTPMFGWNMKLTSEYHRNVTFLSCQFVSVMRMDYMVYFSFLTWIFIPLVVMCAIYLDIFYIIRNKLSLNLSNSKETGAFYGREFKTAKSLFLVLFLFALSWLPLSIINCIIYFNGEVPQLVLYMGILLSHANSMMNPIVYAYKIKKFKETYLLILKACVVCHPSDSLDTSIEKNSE
Test: Binding affinity against Human recombinant Adenosine A3 receptor stably transfected in CHO cells using [3H]NECA as radioligand
Type: cell-based

Row | Ki [nM] | Compound
25 | 0.76 | CNc1nc(C#CC(O)c2ccccc2)nc2c1ncn2[C@@H]1O[C@H](CO)[C@@H](O)[C@H]1O (stereo partly drawn)
26 | 2.3 | CC(C)Nc1nc(C#CC(O)c2ccccc2)nc2c1ncn2[C@@H]1O[C@H](CO)[C@@H](O)[C@H]1O (stereo partly drawn)
27 | 0.97 | CCNc1nc(C#CC(O)c2ccccc2)nc2c1ncn2[C@@H]1O[C@H](CO)[C@@H](O)[C@H]1O (stereo partly drawn)
28 | 3.3 | Nc1nc(C#CC(O)c2ccccc2)nc2c1ncn2[C@@H]1O[C@H](CO)[C@@H](O)[C@H]1O (stereo partly drawn)
29 | 17 | CC(C)Nc1nc(C#Cc2ccccc2)nc2c1ncn2[C@@H]1O[C@H](CO)[C@@H](O)[C@H]1O
30 | 6.2 | CCNC(=O)[C@H]1O[C@@H](n2cnc3c(N)nc(C#Cc4ccccc4)nc32)[C@H](O)[C@@H]1O
31 | 0.75 | CCNC(=O)[C@H]1O[C@@H](n2cnc3c(N)nc(C#C[C@@H](O)c4ccccc4)nc32)[C@H](O)[C@@H]1O
32 | 5.5 | CCNC(=O)[C@H]1O[C@@H](n2cnc3c(N)nc(C#C[C@H](O)c4ccccc4)nc32)[C@H](O)[C@@H]1O
33 | 0.2 | CCNc1nc(C#C[C@@H](O)c2ccccc2)nc2c1ncn2[C@@H]1O[C@H](CO)[C@@H](O)[C@H]1O
34 | 1.5 | CC(C)Nc1nc(C#C[C@@H](O)c2ccccc2)nc2c1ncn2[C@@H]1O[C@H](CO)[C@@H](O)[C@H]1O
35 | 1.1 | CCCCC#Cc1nc(NC)c2ncn([C@@H]3O[C@H](CO)[C@@H](O)[C@H]3O)c2n1
36 | 0.53 | CNc1nc(C#C[C@@H](O)c2ccccc2)nc2c1ncn2[C@@H]1O[C@H](CO)[C@@H](O)[C@H]1O

Biological target: T3, Adenosine receptor A2b (Homo sapiens, UniProt P29275)
T3 sequence (P29275 whole entry): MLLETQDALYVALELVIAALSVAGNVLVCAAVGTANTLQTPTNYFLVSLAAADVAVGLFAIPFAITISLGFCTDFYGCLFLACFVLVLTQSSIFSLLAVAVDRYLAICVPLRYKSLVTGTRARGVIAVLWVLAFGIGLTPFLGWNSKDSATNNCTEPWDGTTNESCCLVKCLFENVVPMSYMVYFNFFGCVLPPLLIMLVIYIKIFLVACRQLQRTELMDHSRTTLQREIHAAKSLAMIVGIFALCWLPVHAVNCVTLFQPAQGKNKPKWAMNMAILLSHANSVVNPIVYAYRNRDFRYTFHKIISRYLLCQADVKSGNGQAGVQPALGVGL
Test: Receptor-stimulated activity in CHO cells stably transfected with Human recombinant Adenosine A2B receptor measuring adenylyl cyclase activity

Row | EC50 [nM] | Compound
37 | 2700 | CNc1nc(C#CC(O)c2ccccc2)nc2c1ncn2[C@@H]1O[C@H](CO)[C@@H](O)[C@H]1O (stereo partly drawn)
38 | 6100 | CC(C)Nc1nc(C#CC(O)c2ccccc2)nc2c1ncn2[C@@H]1O[C@H](CO)[C@@H](O)[C@H]1O (stereo partly drawn)
39 | 1700 | CCNc1nc(C#CC(O)c2ccccc2)nc2c1ncn2[C@@H]1O[C@H](CO)[C@@H](O)[C@H]1O (stereo partly drawn)
40 | 2400 | Nc1nc(C#CC(O)c2ccccc2)nc2c1ncn2[C@@H]1O[C@H](CO)[C@@H](O)[C@H]1O (stereo partly drawn)
41 | > 100000 | CC(C)Nc1nc(C#Cc2ccccc2)nc2c1ncn2[C@@H]1O[C@H](CO)[C@@H](O)[C@H]1O
42 | > 100000 | CCNC(=O)[C@H]1O[C@@H](n2cnc3c(N)nc(C#Cc4ccccc4)nc32)[C@H](O)[C@@H]1O
43 | 220 | CCNC(=O)[C@H]1O[C@@H](n2cnc3c(N)nc(C#C[C@@H](O)c4ccccc4)nc32)[C@H](O)[C@@H]1O
44 | 2400 | CCNC(=O)[C@H]1O[C@@H](n2cnc3c(N)nc(C#C[C@H](O)c4ccccc4)nc32)[C@H](O)[C@@H]1O
45 | 730 | CCNc1nc(C#C[C@@H](O)c2ccccc2)nc2c1ncn2[C@@H]1O[C@H](CO)[C@@H](O)[C@H]1O
46 | 960 | CC(C)Nc1nc(C#C[C@@H](O)c2ccccc2)nc2c1ncn2[C@@H]1O[C@H](CO)[C@@H](O)[C@H]1O
47 | 100000 | CCCCC#Cc1nc(NC)c2ncn([C@@H]3O[C@H](CO)[C@@H](O)[C@H]3O)c2n1
48 | 2600 | CNc1nc(C#C[C@@H](O)c2ccccc2)nc2c1ncn2[C@@H]1O[C@H](CO)[C@@H](O)[C@H]1O
